Assay results as given in US20250270165A1, “COMPOSITIONS FOR AND METHODS OF MODULATING RNA STABILITY” (Duke University, priority 2022, published 2025).
Where “and” joins values, the source holds several entries; their conditions need not be identical. Identical values can stand only once. Entries after “also recorded” stand apart in the source; their conditions may differ. Like-named read-outs stand apart in the source and are kept apart here.

Experiments:
MALAT1 triple helix [1] = experiment: RiboGreen indicator displacement assay (IDA); format: binding, human
Experimental: Indicator Displacement Assay (DIA).
The protocol was adapted from a previously reported procedure. (Donlic A, et al. (2020) Nucleic Acids Res. 48(14):7653-7664). A serial dilution of the MALAT1 triple helix RNA was performed in HEPES buffer (20 mM HEPES-KOH, 52.6 mM KCl. 0.1 mM MgCl2, pH=7.4) in a 96 well plate in triplicate. […] of each dilution were transferred to a 384 well plate followed by […] of a 500 nM solution of RiboGreen dye in the same buffer (Invitrogen™). The plates were excited at 487 nm (8 nm slit) and emission was recorded at 530 nm (8 nm slit, focal height 11.3 mm) using a CLARIOstar plate reader (BMG labtech). The affinity of the dye for the RNA construct was determined by fitting the raw fluorescence in GraphPad Prism version 8.3.1 for Macintosh (GraphPad Software, La Jolla California USA, (www.graphpad.com)) by fitting to the Log[Agonist]vs. response-variable slope model that using Equation (1) below.
where Y is normalized % change in fluorescence intensity, X is RNA concentration, Bottom is lowest fluorescence % change and Top is highest fluorescence % change. Affinity of the dye for the RNA construct was used as the ideal RNA concentration (174 nM) for small molecule titrations.
A serial dilution of small molecule (0, 0.5 μM, […], 2.5 μM, […], 7.5 μM, 10.0 μM, 12.5 μM, 25 μM, 50 μM, 75 μM, 100 μM, 125 µM, 150 µM, 250 μM, 500 µM) was performed in HEPES buffer (20 mM HEPES-KOH, 52.6 mM KCl, 0.1 mM MgCl2, pH=7.4) in a 96 well plate in triplicate. Then, 8 μL of each dilution were transferred to a 384 well plate, followed by 8 μL of a 174 nM solution of MALAT1 RNA and 0.5 mM of RiboGreen™ (Invitrogen™). The RNA was previously annealed by heating to 95° C. for 5 minutes and cooling to 0° C. on ice for 30 minutes. The 384 well plates were shaken for 5 minutes, centrifuged at 4000 rpm for 1 minute, and incubated in the dark for 20 minutes. The plates were excited at 487 nm (8 nm slit) and emission was read at 525 nm (8 nm slit, focal height […]) using a CLARIOstar plate reader (BMG Labtech). Percent fluorescence indicator displacement (% FID) was calculated by subtracting and, subsequently, dividing by the blank wells with RNA-dye complex and no small molecule as shown in Equation (2).
Where F0 is the fluorescence of the blank well with RNA+dye and no small molecule and F is the fluorescence of the well with all three components (RNA+dye+small molecule).
Each technical triplicate was averaged, and the resulting FID values were averaged between three independent experiments. The binding curve and Log(CD50) value was obtained by using a non-linear fit curve (Log[Agonist]vs. response) with variable slope at four parameters (GraphPad Prism Software version for Macintosh 8.3.1, La Jolla, California, USA (www.graphpadprism.com)) as shown in Equation 1. Reported values are averages of three independent experiments standard deviation.

MALAT1 triple helix [2] = experiment: Differential scanning fluorimetry (DSF), triplex thermal stability; format: binding, human
Experimental: Differential Scanning Fluorimetry. Differential scanning fluorimetry experiments were performed as previously reported. (Donlic A, et al. (2020) Nucleic Acids Res. 48(14):7653-7664). All experiments were performed in white 96 well plates in a LightCycler® 96 (Roche). In a typical experiment, 4 μM of RNA was annealed in the same buffer used for indicator displacement assays (20 mM HEPES-KOH, 52.6 mM KCl, 0.1 mM MgCl2, pH=7.4) by heating at 95° C. for 3 minutes, snap-cooling on ice for 10 minutes, and leaving the solution at room temperature for 1 hr. Then, 42 μL of this solution was aliquoted to wells and 5 μM of ligand was added (2.5 μL of water, 2.0 μL of DMSO, 0.5 μL of 500 μM small molecule stock). The mixture was left to incubate at room temperature for 5 minutes, after which 3 μL of a 20 µM Quant-iT™ RiboGreen™ (ThermoFisher Scientific) dye stock solution in appropriate buffer was added to each well. The 96 well plate was then sealed with an optically clear foil and centrifuged for 1 minute at 4000 rpm prior to being placed in the instrument. The light cycler program was created by selecting the melting curve method; fluorescence intensity was monitored using the SYBR Green I/HRM dye filter combination (465-510 nm) from 37-98° C. at a ramp rate of 0.01° C./second with 150 acquisitions per ° C. Melting profiles were obtained by Tm analysis in the LightCycler® 96 software (SW 1.1).

MALAT1 triple helix [3] = experiment: RNase A enzymatic degradation assay; format: biochemical, human; conditions: for stabilizing or destabilizing compound as listed in the description: listing in an aspect, degradation in an enzymatic assay versus control
Experimental: RNase A Enzymatic Degradation Assay.
The procedure was adapted from a published protocol for exonucleolytic enzymatic degradation assay. (Donlic A, et al. (2020) Nucleic Acids Res. 48(14):7653-7664). The MALAT1 destabilizing small molecules published by Le Grice (Abulwerdi F A, et al. (2019) ACS Chem Biol. 14(2):223-235) and co-workers SM5 and SM16 were purchased from ChemBridge. For a typical 70 μL reaction, […] of MALAT1 triple helix RNA was annealed in the same buffer used for IDA and DSF experiments (20 mM HEPES-KOH, 52 mM KCl, 0.1 mM MgCl2, pH=7.4) by heating at 95° C. for 3 minutes, snap-cooling on ice for 10 minutes, and leaving the solution at room temperature for 1 hr.
RNase A enzyme (ThermoFisher) was diluted to 1.46 nM and incubated with 1 M NaCl for 30-35 minutes to achieve ssRNA selectivity as reported. (Struhl K, et al. (1989) Current Protocols in Molecular Biology. 8(1):3.13.1-3.13.3). Next, the RNA was mixed with […] of a CC-rich DNA duplex, 0.2 mM of small molecule/DMSO and incubated at room temperature for 20 minutes. Following the incubation, […] of RNase A was added, and the reaction was incubated at 37° C. for 1 hour in a thermal cycler with a heated lid (Eppendorf). 4 μL timepoint aliquots were taken at 0, 5, 10, 30, and 60 minutes, 4 μL of 2×RNA loading dye was added to each aliquot (ThermoFischer Scientific), and samples were stored at −80° C. prior to gel analysis. Reactions were analyzed on pre-cast 15% PAGE-Urea gels (Invitrogen) in 1×TBE buffer. Aliquots were thawed from −80° C. storage and heated to 95° C. for 15 minutes prior to gel loading and […] were loaded in each well. Gels were run for 45 minutes at 180 V, stained with Diamond™ Nucleic Acid dye (Promega), and visualized on an iBright 500 (ThermoFisher). DMSO controls were ran with every set of 4 small molecules to ensure consistency of enzyme activity and RNA integrity. Gel band intensity of the MALAT1 triple helix and DNA loading control were quantified using ImageJ software. (Rueden C T, et al. (2017) BMC Bioinformatics. 18(1):529).
To quantify time-dependent endonucleolytic degradation for each sample, the intensity was normalized using Equation (3), and fold-difference was calculated as listed in Equation (4) as previously reported. (Donlic A, et al. (2020) Nucleic Acids Res. 48(14):7653-7664).
where y is fold-difference of the exonucleolytic degradation for the specific sample, with normalized areas for its specific time point x and time point 0 calculated as described in Equation (3). Percent RNA degraded was calculated for every time point using Equation (5).
% RNA degraded=(Normalized area (t0)−Normalized area (tx))*100 (Equation 5)
Experimental results shown in FIG. 6C are plotted as three independent replicates and standard deviation between replicates as error bars. Relative fold change between treated condition and DMSO was calculated from Equation (6).

LNCaP cells = experiment: MTT assay in LNCaP cells; format: cell-based, human; conditions: for IC50: Homo sapiens
Text: The MTT reagent (3-(4,5-dimethylthiazol-2-yl)-2,5-diphenyl-2H-tetrazolium bromide) is a mono-tetrazolium salt that consists of a positively charged quaternary tetrazole ring core containing four nitrogen atoms surrounded by three aromatic rings including two phenyl moieties and one thiazolyl ring. Reduction of MTT results in disruption of the core tetrazole ring and the formation of a violet-blue water-insoluble molecule called formazan. The MTT reagent can pass through the cell membrane as well as the mitochondrial inner membrane of viable cells presumably due to its positive charge as well as its lipophilic structure and is reduced to formazan by metabolically active cells. The chromogenic nature of this redox chemical reaction provides a colorimetric-based measurement of intracellular formazan production based on which the MTT assay was developed. Consequently, the assay has extensive utility as a cell metabolic activity assay.
In the first set of […] experiments, four (4) members of the small molecule library were examined in a MTT assay. […] The IC50 values and trends were similar to the apparent small molecule affinities for MALAT-1, supporting a MALAT-1 related mechanism for the toxicity. […] Ongoing cytotoxicity studies using other DMZ small molecule analogs (as well as DMZ-5, DMZ-P13, and DMZ-P17) continue to illuminate mechanism of action regarding toxicity to cancer cells.

[4] = 5-minute time point, relative to DMSO control
[5] = 48 hours, read-out: IC50 at 48 hours

## N=C(NCCc1cccnc1)c1cccc(/N=N/Nc2cccc(C(=N)NCCc3cccnc3)c2)c1 [DMZ-M3]
MALAT1 triple helix [1]
  affinity for the MALAT1 triple helix (IDA), in words: moderate affinity
MALAT1 triple helix [2]
  effect on MALAT1 triplex thermal stability (DSF), in words: negligible thermal stabilization

## N=C(NCc1ccccc1)c1cccc(/N=N/Nc2cccc(C(=N)NCc3ccccc3)c2)c1 [DMZ-M4]
MALAT1 triple helix [1]
  affinity for the MALAT1 triple helix (IDA), in words: mediocre affinity
MALAT1 triple helix [1]; 16-point titration, 20 mM HEPES-KOH, 52 mM KCl, 0.1 mM MgCl2, pH 7.4
  CD50 (50% competitive displacement dose): 36.6 µM
MALAT1 triple helix [3]; 5-minute time point
  increase of the amount of MALAT1 degraded at 5 minutes: 2 fold and > 2 fold
MALAT1 triple helix [3]; [4]
  stabilizer or destabilizer of MALAT1 triplex (RNase A degradation): destabilizers
MALAT1 triple helix [2]
  effect on MALAT1 triplex thermal stability (DSF), in words: increases in thermal stability; also recorded: mediocre affinity and thermal stabilization

## N=C(NCc1ccc(-c2ccccc2)cc1)c1cccc(/N=N/Nc2cccc(C(=N)NCc3ccc(-c4ccccc4)cc3)c2)c1 [DMZ-M7]
LNCaP cells; [5]
  IC50: 2900 nM

## CN1CCN(CCNC(=N)c2cccc(/N=N/Nc3cccc(C(=N)NCCN4CCN(C)CC4)c3)c2)CC1 [DMZ-M10]
LNCaP cells
  IC50 relative to other tested library members, in words: higher IC50

## N=C(NCc1ccco1)c1cccc(/N=N/Nc2cccc(C(=N)NCc3ccco3)c2)c1 [DMZ-M15]
MALAT1 triple helix [1]
  affinity for the MALAT1 triple helix (IDA), in words: moderate affinity
MALAT1 triple helix [3]
  stabilizing or destabilizing compound as listed in the description: stabilizing; also recorded: destabilizing
MALAT1 triple helix [2]
  effect on MALAT1 triplex thermal stability (DSF), in words: negligible thermal stabilization

## CN(C)c1ccc(CN2CCC(CCNC(=N)c3ccc(/N=N/N(C)c4ccc(C(=N)NCCC5CCN(Cc6ccc(N(C)C)cc6)CC5)cc4)cc3)CC2)cc1 [DMZ-NMe-P38]
MALAT1 triple helix [3]
  stabilizing or destabilizing compound as listed in the description: destabilizing

## CN(/N=N/c1ccc(C(=N)NCCC2CCN(Cc3ccccc3)CC2)nc1)c1ccc(C(=N)NCCC2CCN(CC3C=CC=CC3)CC2)nc1 (stereo not shown) [DMZ-NMe-mPy-P1]
MALAT1 triple helix [3]
  stabilizing or destabilizing compound as listed in the description: destabilizing

## N=C(NCc1ccccc1)c1ccccc1/N=N/Nc1ccccc1C(=N)NCc1ccccc1 [DMZ-O4]
MALAT1 triple helix [1]
  affinity for the MALAT1 triple helix (IDA), in words: no affinity

## N=C(NCc1ccc(Cl)cc1)c1ccccc1/N=N/Nc1ccccc1C(=N)NCc1ccc(Cl)cc1 [DMZ-O5]
MALAT1 triple helix [3]; [4]
  stabilizer or destabilizer of MALAT1 triplex (RNase A degradation): much stronger destabilizing effect than DMZ-P5

## N=C(NCc1ccccc1Cl)c1ccccc1/N=N/Nc1ccccc1C(=N)NCc1ccccc1Cl [DMZ-O6]
MALAT1 triple helix [3]
  stabilizing or destabilizing compound as listed in the description: destabilizing; also recorded: stabilizing

## CN(C)CCCNC(=N)c1ccc(/N=N/Nc2ccc(C(=N)NCCCN(C)C)cc2)cc1 [DMZ-P1]
MALAT1 triple helix [3]; [4]
  graded stabilizer/destabilizer class (change in degradation): weak destabilizer (weak destabilizer (<50% increase in degradation))
  stabilizer or destabilizer of MALAT1 triplex (RNase A degradation): destabilizers
MALAT1 triple helix [2]
  effect on MALAT1 triplex thermal stability (DSF), in words: increases in thermal stability
MALAT1 triple helix [2]; equimolar ratio of RNA:small molecule, compared to DMSO vehicle
  effect on Tm1 (ΔTm1): approximately 6.1 °C

## N=C(NCc1ccc(Cl)cc1)c1ccc(/N=N/Nc2ccc(C(=N)NCc3ccc(Cl)cc3)cc2)cc1 [DMZ-P5]
MALAT1 triple helix [1]; subunit R-5
  fold higher affinity with the para scaffold versus the ortho scaffold (DMZ-O5): 13 fold

## N=C(NCCC1CCN(Cc2ccccc2)CC1)c1ccc(/N=N/Nc2ccc(C(=N)NCCC3CCN(Cc4ccccc4)CC3)cc2)cc1 [DMZ-P13]
LNCaP cells; [5]
  IC50: 4100 nM
LNCaP cells; 72 hours, read-out: IC50 at 72 hours
  IC50: 2700 nM

## CCN(CCCCNC(=N)c1ccc(N/N=N/c2ccc(C(=N)NCCCN(CC)Cc3ccccc3)cc2)cc1)Cc1ccccc1 [DMZ-P14]
MALAT1 triple helix [3]
  stabilizing or destabilizing compound as listed in the description: stabilizing; also recorded: destabilizing
